Measurements: PubChem BioAssay (NCI)
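Interpolation was linear, between the two tested concentrations surrounding the appropriate level; five concentrations were tested over 48 hours in 96-well plates. Here, GI50 denotes the concentration required for 50% inhibition of growth. TGI denotes the concentration required for complete inhibition of growth.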

How the values were obtained:
Assay in all cases: growth of human tumour cells (NCI), 48 h
[1] = test system: IGROV1 ovarian
[2] = test system: HT29 colon
[3] = test system: 786-0 renal
[4] = test system: PC-3 prostate
[5] = test system: HL-60(TB) leukemia
[6] = test system: SK-MEL-2 melanoma
[7] = test system: COLO 205 colon
[8] = test system: SF-539 CNS
[9] = test system: EKVX NSCLC
[10] = test system: RXF 393 renal

SMILES | GI50 [1] | TGI [1] | GI50 [2] | TGI [2] | GI50 [3] | TGI [3] | GI50 [4] | TGI [4] | GI50 [5] | TGI [5] | GI50 [6] | TGI [6] | GI50 [7] | TGI [7] | GI50 [8] | TGI [8] | GI50 [9] | TGI [9] | GI50 [10] | TGI [10]
CC(=O)Nc1ccc(C(=O)COc2cccc(/C=C3\CCc4ccccc4C3=O)c2)cc1 | 21.1 µM | 99.2 µM | 18.7 µM | > 100 µM | 26.5 µM | > 100 µM | 10.1 µM | 47.2 µM | 4.4 µM | 22.7 µM | 14.8 µM | 65.8 µM | 17.2 µM | 34.5 µM | 19.2 µM | 40.2 µM | 14.3 µM | 68.7 µM | 24.8 µM | 57.8 µM
Cc1cc2c(SCc3ccccc3Cl)nc(N)nc2nc1C | – | > 100 µM | – | > 100 µM | – | > 100 µM | – | > 100 µM | – | > 100 µM | – | > 100 µM | – | > 100 µM | – | > 100 µM | – | > 100 µM | – | > 100 µM
O=C(c1ccccc1)c1ccc(N2C(=O)C3C4c5ccccc5C(/C=C/C(=O)c5ccccn5)(c5ccccc54)C3C2=O)cc1 (configuration not stated) | 1.86 µM | 4.48 µM | 2.92 µM | > 100 µM | 2.55 µM | 6.85 µM | 3.74 µM | > 100 µM | 1.9 µM | 28.1 µM | 3.07 µM | 15.4 µM | 3.72 µM | 20.8 µM | 2.07 µM | 4.91 µM | 3.02 µM | 39 µM | 1.56 µM | 3.07 µM
COc1ccc(Cl)cc1Nc1nc(C(F)(F)F)ccc1C(=O)N/N=C/c1ccc(Cl)cc1 | 11 µM | 79.1 µM | 7.4 µM | > 100 µM | 1.22 µM | 7.09 µM | > 100 µM | > 100 µM | 7.58 µM | 22 µM | 0.954 µM | > 100 µM | 2.76 µM | > 100 µM | 6.63 µM | 27.5 µM | 4.45 µM | > 100 µM | 4.56 µM | 53.2 µM
N#Cc1c(N/N=C/c2c(Cl)cccc2Cl)nc(N)nc1N1CCCC1 | 0.783 µM | 97.3 µM | 1.96 µM | > 100 µM | 3.93 µM | > 100 µM | 2.89 µM | 40 µM | 3.4 µM | 7.04 µM | 5.55 µM | > 100 µM | 5.29 µM | > 100 µM | 1.77 µM | 5.58 µM | 39.7 µM | > 100 µM | 2.34 µM | > 100 µM
COc1ccc(C[C@H](N)C(=O)N[C@@H]2[C@@H](CO)OC(n3cnc4c(N(C)C)ncnc43)[C@@H]2O)cc1 (some centres not stated) | 0.539 µM | 1.73 µM | – | 1.38 µM | – | 1.24 µM | 0.311 µM | 1.73 µM | 0.454 µM | 1.7 µM | – | 1.23 µM | 0.218 µM | 0.756 µM | 0.435 µM | 1.95 µM | 0.614 µM | 2.55 µM | 0.216 µM | 0.831 µM
CC(C)(CCc1nc2ccccc2[nH]1)C(=O)O | – | > 100 µM | – | > 100 µM | – | > 100 µM | – | > 100 µM | – | > 100 µM | – | > 100 µM | – | > 100 µM | – | > 100 µM | – | > 100 µM | – | > 100 µM
O=C1OC(c2ccccc2)=N/C1=C\c1ccc(N(CCCl)CCCl)cc1 | – | > 100 µM | – | > 100 µM | – | > 100 µM | – | > 100 µM | – | > 100 µM | – | > 100 µM | – | > 100 µM | – | > 100 µM | – | > 100 µM | – | > 100 µM
O=C(COC(=O)[C@H](C[Se][Se]C[C@H](NC(=O)c1ccc(Br)cc1F)C(=O)OCC(=O)c1ccc(F)cc1)NC(=O)c1ccc(Br)cc1F)c1ccc(F)cc1 | 1.35 µM | 3 µM | 0.916 µM | > 58.7 µM | 0.9 µM | 2.23 µM | 0.375 µM | 1.38 µM | 0.425 µM | > 100 µM | 1.66 µM | 4.74 µM | 1.67 µM | 3.95 µM | 0.684 µM | 1.8 µM | 0.517 µM | 1.52 µM | 0.422 µM | 1.5 µM
